Measurements published in patent US20070004660A1, “Synergistic Modulation of Flt3 Kinase Using Alkylquinolines and Alkylquinazolines” (priority 2005, published 2007).

Assays:
[1] = target: T1, isolated kinase domain of the human FLT3 receptor (a.a. 571-993) (Homo sapiens, UniProt P36888); assay: FLT3 fluorescence polarization kinase assay; assay type: biochemical; details: 150 uM ATP; uncertainty ±10%
T1 construct: human FLT3 receptor (a.a. 571-993)
T1 sequence (P36888 571-993): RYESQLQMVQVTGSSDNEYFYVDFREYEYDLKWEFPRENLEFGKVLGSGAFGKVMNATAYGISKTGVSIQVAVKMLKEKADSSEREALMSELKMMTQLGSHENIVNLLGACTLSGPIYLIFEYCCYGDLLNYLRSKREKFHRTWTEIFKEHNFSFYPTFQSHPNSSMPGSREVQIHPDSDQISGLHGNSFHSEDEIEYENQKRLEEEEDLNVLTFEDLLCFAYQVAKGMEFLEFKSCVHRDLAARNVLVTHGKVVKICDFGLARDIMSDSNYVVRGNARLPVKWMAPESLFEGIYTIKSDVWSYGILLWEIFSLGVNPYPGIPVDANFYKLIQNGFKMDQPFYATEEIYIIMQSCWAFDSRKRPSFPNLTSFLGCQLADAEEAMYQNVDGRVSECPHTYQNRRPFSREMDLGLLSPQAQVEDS

[2] = system: MV4-11 cells; assay: Inhibition of MV4-11 cell proliferation (CellTiterGlo, 72 h); assay type: cell-based; details: Homo sapiens; 72 h growth inhibition; uncertainty ±20%

In the case of `CN(C)[C@@H]1CCN(c2ccc3c(C4CCN(C(=O)Nc5ccc(N6CCOCC6)cc5)CC4)ncnc3c2)C1` [Example 150, (R)-4-[7-(3-Dimethylamino-pyrrolidin-1-yl)-quinazolin-4-yl]-piperidine-1-carboxylic acid (4-morpholin-4-yl-phenyl)-amide], the IC50 [1] is reported as 14 nM and the IC50 [2] is reported as 269 nM.

Work on `O=C(Nc1ccc(N2CCCC2)cc1)N1CCC(c2ncnc3cc(-n4ccnc4)ccc23)CC1` [Compound 180, 4-(7-Imidazol-1-yl-quinazolin-4-yl)-piperidine-1-carboxylic acid (4-pyrrolidin-1-yl-phenyl)-amide] yielded an IC50 [1] of 6 nM and an IC50 [2] of 20 nM.

Compound `O=C(Nc1ccc(N2CCCC2)cc1)N1CCC(c2ncnc3cc(N4CCN(c5ncccn5)CC4)ccc23)CC1` [Compound 193, 4-[7-(4-Pyrimidin-2-yl-piperazin-1-yl)-quinazolin-4-yl]-piperidine-1-carboxylic acid (4-pyrrolidin-1-yl-phenyl)-amide] has an IC50 [1] of 4 nM and an IC50 [2] of 16 nM.

`O=C(Nc1ccc(N2CCCC2)cc1)N1CCC(c2ncnc3cc(N4CCOCC4)ccc23)CC1` [Compound 181, 4-(7-Morpholin-4-yl-quinazolin-4-yl)-piperidine-1-carboxylic acid (4-pyrrolidin-1-yl-phenyl)-amide] gave an IC50 [1] of 10 nM and an IC50 [2] of 9 nM.

Compound `CC(=O)N1CCN(c2ccc3c(C4CCN(C(=O)Nc5ccc(N6CCOCC6)cc5)CC4)ncnc3c2)CC1` [Example 141, 4-[7-(4-Acetyl-piperazin-1-yl)-quinazolin-4-yl]-piperidine-1-carboxylic acid (4-morpholin-4-yl-phenyl)-amide] has an IC50 [1] of 66 nM and an IC50 [2] of 79 nM.

Work on `CN(C)C(=O)N1CCN(c2ccc3c(C4CCN(C(=O)Nc5ccc(N6CCOCC6)cc5)CC4)ncnc3c2)CC1` [Example 143, 4-{4-[1-(4-Morpholin-4-yl-phenylcarbamoyl)-piperidin-4-yl]-quinazolin-7-yl}-piperazine-1-carboxylic acid dimethylamide] yielded an IC50 [1] of 4 nM and an IC50 [2] of 39 nM.

Compound `COc1cc2ncnc(C3CCN(C(=O)Nc4ccc5[nH]ccc5c4)CC3)c2cc1OC` [Example 23, 4-(6,7-Dimethoxy-quinazolin-4-yl)-piperidine-1-carboxylic acid (1H-indol-5-yl)-amide] has an IC50 [1] of 390 nM and an IC50 [2] of 2700 nM.

With `O=C(Nc1ccc(N2CCOCC2)cc1)N1CCC(c2ncnc3cc(N4CCC[C@@H]4CO)ccc23)CC1` [Example 132, (R)-4-[7-(2-Hydroxymethyl-pyrrolidin-1-yl)-quinazolin-4-yl]-piperidine-1-carboxylic acid (4-morpholin-4-yl-phenyl)-amide] the IC50 [1] was 67 nM and the IC50 [2] was 33 nM.

`O=C(Nc1ccc(N2CCCC2)cc1)N1CCC(c2ncnc3cc(NCCO)ccc23)CC1` [Example 175, 4-[7-(2-Hydroxy-ethylamino)-quinazolin-4-yl]-piperidine-1-carboxylic acid (4-pyrrolidin-1-yl-phenyl)-amide] was tested, and the IC50 [1] was 1 nM and the IC50 [2] was 18 nM.

Work on `CN1CCN(CCCOc2cc3ncnc(C4CCN(C(=O)Nc5ccc(N6CCOCC6)cc5)CC4)c3cc2F)CC1` [Compound 205, 4-{6-Fluoro-7-[3-(4-methyl-piperazin-1-yl)-propoxy]-quinazolin-4-yl}-piperidine-1-carboxylic acid (4-morpholin-4-yl-phenyl)-amide] yielded an IC50 [1] of 63 nM and an IC50 [2] of 78 nM.

`O=C(Nc1ccc(N2CCCC2)cc1)N1CCC(c2ncnc3cc(O[C@H]4CCOC4)ccc23)CC1` [Compound 190, (S)-4-[7-(Tetrahydro-furan-3-yloxy)-quinazolin-4-yl]-piperidine-1-carboxylic acid (4-pyrrolidin-1-yl-phenyl)-amide] was tested, and the IC50 [1] was 277 nM and the IC50 [2] was 88 nM.

Work on `CN1CCN(CCOc2ccc3c(C4CCN(C(=O)Nc5ccc(N6CCCC6)cc5)CC4)ncnc3c2)CC1=O` [Compound 202, 4-{7-[2-(4-Methyl-3-oxo-piperazin-1-yl)-ethoxy]-quinazolin-4-yl}-piperidine-1-carboxylic acid (4-pyrrolidin-1-yl-phenyl)-amide] yielded an IC50 [1] of 90 nM and an IC50 [2] of 74 nM.

`CN1CCN(c2ccc3c(C4CCN(C(=O)Nc5ccc(N6CCCC6)cc5)CC4)ncnc3c2)CC1=O` [Compound 184, 4-[7-(4-Methyl-3-oxo-piperazin-1-yl)-quinazolin-4-yl]-piperidine-1-carboxylic acid (4-pyrrolidin-1-yl-phenyl)-amide] gave an IC50 [1] of 244 nM and an IC50 [2] of 58 nM.

Work on `CCNC(=O)N1CCN(c2ccc3c(C4CCN(C(=O)Nc5ccc(N6CCCC6)cc5)CC4)ncnc3c2)CC1` [Compound 199, 4-{4-[1-(4-Pyrrolidin-1-yl-phenylcarbamoyl)-piperidin-4-yl]-quinazolin-7-yl}-piperazine-1-carboxylic acid ethylamide] yielded an IC50 [1] of 28 nM and an IC50 [2] of 3 nM.

In the case of `O=C(Nc1ccc(N2CCOCC2)cc1)N1CCC(c2ncnc3cc(OCCN4CCC[C@H]4CO)ccc23)CC1` [Example 153, (S)-4-{7-[2-(2-Hydroxymethyl-pyrrolidin-1-yl)-ethoxy]-quinazolin-4-yl}-piperidine-1-carboxylic acid (4-morpholin-4-yl-phenyl)-amide], the IC50 [1] is reported as 22 nM and the IC50 [2] is reported as 395 nM.

With `CN1CCN(c2ccc3c(C4CCN(C(=O)Nc5ccc(N6CCCC6)nc5)CC4)ncnc3c2)CC1` [Example 160, 4-[7-(4-Methyl-piperazin-1-yl)-quinazolin-4-yl]-piperidine-1-carboxylic acid (6-pyrrolidin-1-yl-pyridin-3-yl)-amide] the IC50 [1] was 14 nM and the IC50 [2] was 67 nM.

`O=C1CN(c2ccc3c(C4CCN(C(=O)Nc5ccc(N6CCCC6)cc5)CC4)ncnc3c2)CCN1` [Compound 183, 4-[7-(3-Oxo-piperazin-1-yl)-quinazolin-4-yl]-piperidine-1-carboxylic acid (4-pyrrolidin-1-yl-phenyl)-amide] gave an IC50 [1] of 3 nM and an IC50 [2] of 18 nM.

Compound `O=C(CO)N1CCN(c2ccc3c(C4CCN(C(=O)Nc5ccc(N6CCCC6)cc5)CC4)ncnc3c2)CC1` [Compound 201, 4-{7-[4-(2-Hydroxy-acetyl)-piperazin-1-yl]-quinazolin-7-yl}-piperidine-1-carboxylic acid (4-pyrrolidin-1-yl-phenyl)-amide] has an IC50 [1] of 17 nM and an IC50 [2] of 16 nM.

For `CN1CCC[C@H]1COc1ccc2c(C3CCN(C(=O)Nc4ccc(N5CCCC5)cc4)CC3)ncnc2c1` [Example 151, (S)-4-[7-(1-Methyl-pyrrolidin-2-ylmethoxy)-quinazolin-4-yl]-piperidine-1-carboxylic acid (4-pyrrolidin-1-yl-phenyl)-amide], the IC50 [1] was 62 nM and the IC50 [2] was 193 nM.

For `O=C(Nc1ccc(N2CCOCC2)cc1)N1CCC(c2ncnc3cc(N4CC[C@H](O)C4)ccc23)CC1` [Example 128, 4-[7-(3-Hydroxy-pyrrolidin-1-yl)-quinazolin-4-yl]-piperidine-1-carboxylic acid (4-morpholin-4-yl-phenyl)-amide], the IC50 [1] was 25 nM and the IC50 [2] was 16 nM.

`O=C(Nc1ccc(N2CCCC2)cc1)N1CCC(c2ncnc3cc(N4CCC(F)CC4)ccc23)CC1` [Compound 195, 4-[7-(4-Fluoro-piperidin-1-yl)-quinazolin-4-yl]-piperidine-1-carboxylic acid (4-pyrrolidin-1-yl-phenyl)-amide] was tested, and the IC50 [1] was 163 nM and the IC50 [2] was 17 nM.

For `CS(=O)(=O)N1CCN(c2ccc3c(C4CCN(C(=O)Nc5ccc(N6CCOCC6)cc5)CC4)ncnc3c2)CC1` [Example 142, 4-[7-(4-Methanesulfonyl-piperazin-1-yl)-quinazolin-4-yl]-piperidine-1-carboxylic acid (4-morpholin-4-yl-phenyl)-amide], the IC50 [1] was 6 nM and the IC50 [2] was 88 nM.

Work on `O=C(Nc1ccc(N2CCOCC2)cc1)N1CCC(c2ncnc3cc(OCCCN4CCOCC4)ccc23)CC1` [Example 133, 4-[7-(3-Morpholin-4-yl-propoxy)-quinazolin-4-yl]-piperidine-1-carboxylic acid (4-morpholin-4-yl-phenyl)-amide] yielded an IC50 [1] of 2 nM and an IC50 [2] of 58 nM.

Work on `CNC(=O)C1CCN(c2ccc3c(C4CCN(C(=O)Nc5ccc(N6CCCC6)cc5)CC4)ncnc3c2)CC1` [Example 155, 4-[7-(4-Carboxylic acid methylamide-piperidin-1-yl)-quinazolin-4-yl]-piperidine-1-carboxylic acid (4-pyrrolidin-1-yl-phenyl)-amide] yielded an IC50 [1] of 8 nM and an IC50 [2] of 13 nM.

With `CN(C)C(=O)N1CCN(CCCOc2ccc3c(C4CCN(C(=O)Nc5ccc(N6CCCC6)cc5)CC4)ncnc3c2)CC1` [Example 165, 4-(3-{4-[1-(4-Pyrrolidin-1-yl-phenylcarbamoyl)-piperidin-4-yl]-quinazolin-7-yloxy}-propyl)-piperazine-1-carboxylic acid dimethylamide] the IC50 [1] was 15 nM and the IC50 [2] was 18 nM.

`O=C(Nc1ccc(N2CCCC2)cc1)N1CCC(c2ncnc3cc(N4CCCC4)ccc23)CC1` [Compound 179, 4-(7-Pyrrolidin-1-yl-quinazolin-4-yl)-piperidine-1-carboxylic acid (4-pyrrolidin-1-yl-phenyl)-amide] showed an IC50 [1] of 17 nM and an IC50 [2] of 34 nM.

In the case of `O=C(Nc1ccc(N2CCOCC2)cc1)N1CCC(c2ncnc3cc(N4CCOCC4)ccc23)CC1` [Example 145, 4-(7-Morpholin-4-yl-quinazolin-4-yl)-piperidine-1-carboxylic acid (4-morpholin-4-yl-phenyl)-amide], the IC50 [1] is reported as 65 nM and the IC50 [2] is reported as 137 nM.
